Data as given in PMC10683025, “Discovery of a Hydroxylamine-Based Brain-Penetrant EGFR Inhibitor for Metastatic Non-Small-Cell Lung Cancer” (Journal of Medicinal Chemistry, 2023).

Experiments:
[1] = biological target: T1, ABL1(M351T)-phosphorylated (Homo sapiens, UniProt P00519, M351T); experiment: KINOMEScan; format: binding; details: read-out: Percent Control
T1 construct: purchased Eurofins DiscoverX
From the text: (§2) Percent control was mapped onto the kinome tree using TREEspot.

[2] = biological target: T2, ABL1(H396P)-phosphorylated (Homo sapiens, UniProt P00519, H396P); experiment: KINOMEScan; format: binding; details: read-out: Percent Control
T2 construct: purchased Eurofins DiscoverX
From the text: as §2

ALK(C1156Y) = biological target: T3, ALK(C1156Y) (Homo sapiens, UniProt Q9UM73, C1156Y); experiment: KINOMEScan; format: binding; details: read-out: Percent Control
T3 construct: purchased Eurofins DiscoverX (KINOMEscan)
From the text: as §2

CYP2C9 = biological target: T4, CYP2C9 (Homo sapiens, UniProt P11712); format: in vitro ADME; details: liver microsomes
T4 construct: tissue BD Gentest; host or cells: pooled human liver microsomes
Procedure: The activities tested were CYP1A2-mediated phenacetin O-demethylation, CYP2C19-mediated (S)-mephenyotin 4′-hydroxylation, CYP2C9-mediated diclofenac 4′-hydroxylation, CYP2D6-mediated dextromethorphan O-demethylation, and CYP3A4-mediated midazolam 1′-hydroxylation. […] The reactions were initiated by adding NADPH (1 mM final concentration) after a 5 min preincubation, and the assay was run in duplicate (n = 2). Samples were analyzed by ultra-performance liquid chromatography tandem mass spectrometry (UPLC-MS/MS).

WEE2 = biological target: T5, WEE2 (Homo sapiens, UniProt P0C1S8); experiment: KINOMEScan; format: binding; details: WEE2, 1 µM; read-out: Percent Control
T5 construct: purchased Eurofins DiscoverX
From the text: as §2

ACVRL1 = biological target: T6, ACVRL1 (Homo sapiens, UniProt P37023); experiment: KINOMEScan; format: binding; details: ACVRL1, 1 µM; read-out: Percent Control
T6 construct: purchased Eurofins DiscoverX (KINOMEscan)
From the text: as §2

ABL1-nonphosphorylated = biological target: T7, ABL1-nonphosphorylated (Homo sapiens, UniProt P00519); experiment: KINOMEScan; format: binding; details: read-out: Percent Control
T7 construct: purchased Eurofins DiscoverX
From the text: as §2

[3] = Metabolic stability in hepatocytes; format: in vitro ADME, beagle dog; details: for Remaining Percentages: dog hepatocytes
Procedure: Hepatocyte stability was assessed in duplicate (n = 2) at a working cell density of 0.5 × 10^6 cells/mL with hepatocytes from human (BiolVT), Sprague-Dawley rat (BiolVT), cynomolgus monkey (RILD) or beagle dog (BiolVT). […] The in vitro half-life and intrinsic clearances were determined as previously described.[76]
In vitro half-life (in vitro t1/2) was determined from the slope value in [drawing 1] where k was determined by linear regression of the natural logarithm of the remaining percentage of the parent drug vs the incubation time curve.

BMPR1B = biological target: T8, BMPR1B (Homo sapiens, UniProt O00238); experiment: KINOMEScan; format: binding; details: read-out: Percent Control
T8 construct: purchased Eurofins DiscoverX (KINOMEscan)
From the text: as §2

YANK2 = biological target: T9, YANK2 (Homo sapiens, UniProt Q9NY57); experiment: KINOMEScan; format: binding; details: YANK2, 1 µM; read-out: Percent Control
T9 construct: purchased Eurofins DiscoverX (KINOMEScan service)
From the text: as §2

AXL = biological target: T10, AXL (Homo sapiens, UniProt P30530); experiment: KINOMEScan; format: binding; details: read-out: Percent Control
T10 construct: purchased Eurofins DiscoverX (KINOMEscan)
From the text: as §2

[4] = biological target: T11, ABL1(Y253F)-phosphorylated (Homo sapiens, UniProt P00519, Y253F); experiment: KINOMEScan; format: binding; details: read-out: Percent Control
T11 construct: purchased Eurofins DiscoverX
From the text: as §2

[5] = biological target: T12, ABL1(F317I)-nonphosphorylated (Homo sapiens, UniProt P00519, F317I); experiment: KINOMEScan; format: binding; details: read-out: Percent Control
T12 construct: purchased Eurofins DiscoverX
From the text: as §2

AURKB = biological target: T13, AURKB (Homo sapiens, UniProt Q96GD4); experiment: KINOMEScan; format: binding; details: read-out: Percent Control
T13 construct: purchased Eurofins DiscoverX (KINOMEscan)

ERBB2 = biological target: T14, ERBB2 (Homo sapiens, UniProt P04626); experiment: KinaseProfiler enzymatic radiometric assay; format: biochemical; details: read-out: Kinase IC50
T14 construct: purchased Eurofins DiscoverX (contract assay)
Procedure: (§1) In vitro kinase activity (inhibitor binding constants (Kd) and biochemical inhibition (IC50’s)) were assessed by Eurofins DiscoverX (Kd determinations) and Eurofins Cerep (biochemical IC50 determinations).

DRAK1 = biological target: T15, DRAK1 (Homo sapiens, UniProt Q9UEE5); experiment: KinaseProfiler enzymatic radiometric assay; format: biochemical; details: read-out: Kinase IC50
T15 construct: purchased Eurofins DiscoverX (contract assay)
T15 sequence (Q9UEE5 1-414): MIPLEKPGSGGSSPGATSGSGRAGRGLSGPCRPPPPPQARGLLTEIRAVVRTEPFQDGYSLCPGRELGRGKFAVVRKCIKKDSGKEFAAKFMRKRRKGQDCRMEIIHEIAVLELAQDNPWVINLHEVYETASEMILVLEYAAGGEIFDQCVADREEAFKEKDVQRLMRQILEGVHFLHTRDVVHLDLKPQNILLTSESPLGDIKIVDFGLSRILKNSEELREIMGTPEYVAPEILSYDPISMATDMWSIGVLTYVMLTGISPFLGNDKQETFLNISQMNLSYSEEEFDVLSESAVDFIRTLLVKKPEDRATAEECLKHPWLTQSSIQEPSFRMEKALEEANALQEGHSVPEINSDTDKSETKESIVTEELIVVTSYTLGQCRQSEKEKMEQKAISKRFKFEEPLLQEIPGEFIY
Procedure: as §1

BCR-ABLwt = BCR-ABLwt (Homo sapiens, UniProt P00519); experiment: KinaseProfiler enzymatic radiometric assay; format: biochemical; details: read-out: Kinase IC50
Procedure: as §1

AKT3 = biological target: T16, AKT3 (Homo sapiens, UniProt Q9Y243); experiment: KINOMEScan; format: binding; details: AKT3, 1 µM; read-out: Percent Control
T16 construct: purchased Eurofins DiscoverX (KINOMEscan)
From the text: as §2

ZAP70 = biological target: T17, ZAP70 (Homo sapiens, UniProt P43403); experiment: KINOMEScan; format: binding; details: ZAP70, 1 µM; read-out: Percent Control
T17 construct: purchased Eurofins DiscoverX (KINOMEScan service)
From the text: as §2

BLK = biological target: T18, BLK (Homo sapiens, UniProt P51451); experiment: KINOMEScan; format: binding; details: read-out: Percent Control
T18 construct: purchased Eurofins DiscoverX (KINOMEscan)
From the text: as §2

WNK2 = biological target: T19, WNK2 (Homo sapiens, UniProt Q9Y3S1); experiment: KINOMEScan; format: binding; details: WNK2, 1 µM; read-out: Percent Control
T19 construct: purchased Eurofins DiscoverX
T19 sequence (Q9Y3S1 whole entry): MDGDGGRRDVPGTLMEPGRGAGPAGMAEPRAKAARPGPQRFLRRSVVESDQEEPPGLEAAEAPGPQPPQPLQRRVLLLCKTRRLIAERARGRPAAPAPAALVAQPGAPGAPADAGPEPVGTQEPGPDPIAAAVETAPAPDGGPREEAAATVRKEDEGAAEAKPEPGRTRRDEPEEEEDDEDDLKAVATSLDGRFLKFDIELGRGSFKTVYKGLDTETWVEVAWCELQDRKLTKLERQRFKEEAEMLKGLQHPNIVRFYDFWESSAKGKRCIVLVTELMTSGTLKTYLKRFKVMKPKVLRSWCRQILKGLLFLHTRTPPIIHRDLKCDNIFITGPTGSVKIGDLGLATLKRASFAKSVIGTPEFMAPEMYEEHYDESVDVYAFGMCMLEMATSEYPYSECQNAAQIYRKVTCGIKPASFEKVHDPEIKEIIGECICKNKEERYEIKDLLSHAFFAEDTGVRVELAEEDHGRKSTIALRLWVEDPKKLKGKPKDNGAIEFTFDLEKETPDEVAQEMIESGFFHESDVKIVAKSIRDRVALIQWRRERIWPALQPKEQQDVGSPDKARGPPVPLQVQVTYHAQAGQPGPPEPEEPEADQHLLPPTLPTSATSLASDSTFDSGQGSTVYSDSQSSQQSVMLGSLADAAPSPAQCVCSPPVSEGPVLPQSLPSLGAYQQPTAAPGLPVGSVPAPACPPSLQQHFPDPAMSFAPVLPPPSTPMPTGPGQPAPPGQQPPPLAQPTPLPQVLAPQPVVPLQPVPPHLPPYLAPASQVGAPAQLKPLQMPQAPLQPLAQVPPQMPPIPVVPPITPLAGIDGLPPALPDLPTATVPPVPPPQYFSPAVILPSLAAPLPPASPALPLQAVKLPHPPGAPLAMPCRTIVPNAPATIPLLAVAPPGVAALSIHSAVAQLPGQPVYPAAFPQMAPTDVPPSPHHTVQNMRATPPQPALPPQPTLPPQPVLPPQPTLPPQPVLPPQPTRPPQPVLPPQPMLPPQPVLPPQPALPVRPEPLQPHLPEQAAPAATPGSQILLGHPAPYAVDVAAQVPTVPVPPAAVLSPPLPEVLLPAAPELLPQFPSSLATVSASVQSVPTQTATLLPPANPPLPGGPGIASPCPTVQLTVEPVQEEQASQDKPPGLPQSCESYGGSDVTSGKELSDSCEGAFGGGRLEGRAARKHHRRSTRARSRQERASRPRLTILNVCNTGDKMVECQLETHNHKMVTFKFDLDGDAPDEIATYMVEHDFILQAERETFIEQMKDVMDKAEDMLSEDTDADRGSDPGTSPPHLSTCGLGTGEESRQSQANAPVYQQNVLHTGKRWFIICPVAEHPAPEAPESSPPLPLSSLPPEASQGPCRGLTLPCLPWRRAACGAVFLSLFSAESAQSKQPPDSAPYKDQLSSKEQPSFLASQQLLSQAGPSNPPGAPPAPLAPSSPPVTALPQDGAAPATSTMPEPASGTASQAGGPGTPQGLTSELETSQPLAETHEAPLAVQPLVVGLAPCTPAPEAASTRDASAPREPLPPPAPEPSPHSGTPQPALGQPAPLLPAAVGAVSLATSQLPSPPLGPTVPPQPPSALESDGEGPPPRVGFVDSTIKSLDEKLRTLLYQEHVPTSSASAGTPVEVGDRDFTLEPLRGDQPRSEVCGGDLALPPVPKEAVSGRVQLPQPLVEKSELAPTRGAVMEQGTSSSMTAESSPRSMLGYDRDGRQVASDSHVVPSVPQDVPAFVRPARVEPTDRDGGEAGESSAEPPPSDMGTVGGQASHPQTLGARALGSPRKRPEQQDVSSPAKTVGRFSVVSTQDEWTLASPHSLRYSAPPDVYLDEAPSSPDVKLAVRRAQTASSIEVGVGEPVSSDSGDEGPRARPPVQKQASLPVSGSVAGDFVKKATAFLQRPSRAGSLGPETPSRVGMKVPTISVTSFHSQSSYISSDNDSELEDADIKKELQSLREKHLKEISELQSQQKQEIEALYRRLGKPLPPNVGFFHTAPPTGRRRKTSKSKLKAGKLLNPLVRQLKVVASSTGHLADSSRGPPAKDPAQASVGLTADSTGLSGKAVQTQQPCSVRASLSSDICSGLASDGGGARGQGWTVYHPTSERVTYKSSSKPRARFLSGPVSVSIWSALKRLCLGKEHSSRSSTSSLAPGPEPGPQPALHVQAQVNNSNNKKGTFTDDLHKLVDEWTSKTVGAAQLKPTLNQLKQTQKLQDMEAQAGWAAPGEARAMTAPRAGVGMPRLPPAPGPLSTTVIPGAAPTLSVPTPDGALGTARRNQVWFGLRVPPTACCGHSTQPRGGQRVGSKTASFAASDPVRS
From the text: as §2

T13 sequence (Q96GD4 whole entry): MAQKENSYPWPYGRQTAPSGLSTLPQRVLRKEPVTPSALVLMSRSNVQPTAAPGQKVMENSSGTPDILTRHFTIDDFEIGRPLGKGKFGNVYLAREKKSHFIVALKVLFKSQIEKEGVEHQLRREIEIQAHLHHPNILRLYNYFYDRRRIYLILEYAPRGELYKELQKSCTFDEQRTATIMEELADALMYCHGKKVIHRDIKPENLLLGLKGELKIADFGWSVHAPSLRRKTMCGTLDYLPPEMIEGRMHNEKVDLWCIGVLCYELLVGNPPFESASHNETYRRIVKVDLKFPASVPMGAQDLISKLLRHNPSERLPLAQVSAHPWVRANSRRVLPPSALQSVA
T14 sequence (P04626 23-1255): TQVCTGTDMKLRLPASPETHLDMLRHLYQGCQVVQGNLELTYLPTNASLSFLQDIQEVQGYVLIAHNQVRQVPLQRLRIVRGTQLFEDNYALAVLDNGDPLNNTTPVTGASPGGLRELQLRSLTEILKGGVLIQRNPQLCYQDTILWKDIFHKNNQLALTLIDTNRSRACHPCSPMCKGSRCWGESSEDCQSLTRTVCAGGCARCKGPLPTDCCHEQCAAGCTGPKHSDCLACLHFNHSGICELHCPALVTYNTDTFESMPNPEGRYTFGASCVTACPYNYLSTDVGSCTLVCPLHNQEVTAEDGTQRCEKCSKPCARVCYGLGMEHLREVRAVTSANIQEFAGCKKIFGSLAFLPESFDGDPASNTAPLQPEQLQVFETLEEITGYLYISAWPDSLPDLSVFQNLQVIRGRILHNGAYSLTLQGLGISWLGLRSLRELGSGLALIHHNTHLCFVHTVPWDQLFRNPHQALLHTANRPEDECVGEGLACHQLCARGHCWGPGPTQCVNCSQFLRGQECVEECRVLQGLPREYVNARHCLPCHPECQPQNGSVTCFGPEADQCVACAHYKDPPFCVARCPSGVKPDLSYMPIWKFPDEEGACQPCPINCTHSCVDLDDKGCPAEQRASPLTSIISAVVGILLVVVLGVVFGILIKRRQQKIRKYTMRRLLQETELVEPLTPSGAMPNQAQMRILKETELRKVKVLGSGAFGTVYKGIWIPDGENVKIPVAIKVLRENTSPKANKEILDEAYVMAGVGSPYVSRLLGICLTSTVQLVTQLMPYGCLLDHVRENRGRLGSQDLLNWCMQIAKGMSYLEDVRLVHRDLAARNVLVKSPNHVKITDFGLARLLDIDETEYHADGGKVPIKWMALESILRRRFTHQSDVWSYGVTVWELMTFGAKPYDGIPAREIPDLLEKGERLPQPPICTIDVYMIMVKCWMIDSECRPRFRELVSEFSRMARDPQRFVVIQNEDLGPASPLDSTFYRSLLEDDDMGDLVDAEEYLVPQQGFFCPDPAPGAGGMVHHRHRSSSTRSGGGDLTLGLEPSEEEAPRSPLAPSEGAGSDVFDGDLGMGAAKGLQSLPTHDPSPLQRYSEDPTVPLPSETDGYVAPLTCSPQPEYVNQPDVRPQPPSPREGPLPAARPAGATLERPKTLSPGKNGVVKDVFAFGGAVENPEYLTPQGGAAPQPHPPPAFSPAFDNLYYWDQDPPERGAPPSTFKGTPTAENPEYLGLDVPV
T18 sequence (P51451 whole entry): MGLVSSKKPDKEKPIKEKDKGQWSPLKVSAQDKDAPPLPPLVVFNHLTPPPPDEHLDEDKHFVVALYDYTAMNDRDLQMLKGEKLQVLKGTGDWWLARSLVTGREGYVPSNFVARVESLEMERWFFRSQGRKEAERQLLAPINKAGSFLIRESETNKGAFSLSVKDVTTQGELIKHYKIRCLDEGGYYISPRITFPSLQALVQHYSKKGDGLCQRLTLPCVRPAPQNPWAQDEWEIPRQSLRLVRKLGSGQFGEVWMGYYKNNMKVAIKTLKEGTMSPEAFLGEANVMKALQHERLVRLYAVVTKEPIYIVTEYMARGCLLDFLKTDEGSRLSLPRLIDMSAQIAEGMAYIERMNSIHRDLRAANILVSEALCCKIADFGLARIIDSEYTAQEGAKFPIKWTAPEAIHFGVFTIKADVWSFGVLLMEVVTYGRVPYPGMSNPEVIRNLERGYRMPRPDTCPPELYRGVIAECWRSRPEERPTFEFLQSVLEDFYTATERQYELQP
T16 sequence (Q9Y243 whole entry): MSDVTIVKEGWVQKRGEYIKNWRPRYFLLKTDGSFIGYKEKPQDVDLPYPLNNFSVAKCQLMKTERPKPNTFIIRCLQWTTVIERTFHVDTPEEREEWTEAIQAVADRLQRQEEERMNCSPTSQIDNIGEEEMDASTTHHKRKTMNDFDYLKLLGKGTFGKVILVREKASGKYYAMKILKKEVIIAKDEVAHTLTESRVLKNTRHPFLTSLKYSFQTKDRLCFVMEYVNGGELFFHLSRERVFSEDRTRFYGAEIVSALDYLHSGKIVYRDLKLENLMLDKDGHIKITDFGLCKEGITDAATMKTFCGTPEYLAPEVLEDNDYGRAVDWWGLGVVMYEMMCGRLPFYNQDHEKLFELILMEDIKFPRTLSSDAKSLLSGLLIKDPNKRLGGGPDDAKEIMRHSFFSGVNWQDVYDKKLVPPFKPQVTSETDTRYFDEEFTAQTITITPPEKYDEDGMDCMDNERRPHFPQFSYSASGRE

With `COc1cc2ncnc(Nc3cccc(Cl)c3F)c2cc1OCCON1CCN(C)CC1` [Compound 9, N-(3-Chloro-2-fluorophenyl)-7-methoxy-6-(2-((4-methylpiperazin-1-yl)oxy)ethoxy)quinazolin-4-amine] the remaining binding at 1 µM [1] was 12%, the remaining binding at 1 µM [2] was 6.6% and the remaining binding at 1 µM (ALK(C1156Y)) was 100%. The IC50 (CYP2C9) was greater than 30000 nM, the remaining binding at 1 µM (WEE2) was 100% and the remaining binding at 1 µM (ACVRL1) was 100%. The remaining binding at 1 µM (ABL1-nonphosphorylated) was 8.9%, the hepatocyte CLint at 2 h, 1 µM ([3]; beagle, dog, hepatocytes) was 13 µL/min/1e6 cells and the “Remaining Percentages” value ([3]; 15 min) was 88.01%. The “Remaining Percentages” value ([3]; 30 min) was 79.61%, the “Remaining Percentages” value ([3]; 60 min) was 68.74% and the “Remaining Percentages” value ([3]; 90 min) was 60.01%. For the same compound, the “Remaining Percentages” value ([3]; 120 min) was 41.31%, the remaining binding at 1 µM (BMPR1B) was 79% and the remaining binding at 1 µM (YANK2) was 93%. The remaining binding at 1 µM (AXL) was 100%, the remaining binding at 1 µM [4] was 6.6% and the remaining binding at 1 µM [5] was 54%. It also gave a remaining binding at 1 µM (AURKB) of 84%, an IC50 (ERBB2) of 12 nM and an IC50 (DRAK1) of 1030 nM. The IC50 (BCR-ABLwt) was 976 nM, the remaining binding at 1 µM (AKT3) was 68% and the remaining binding at 1 µM (ZAP70) was 98%. It also gave a remaining binding at 1 µM (BLK) of 16% and a remaining binding at 1 µM (WNK2) of 94%.
